Where a SMILES comes first, the peptide text is derived from it. [ ]: non-standard residue; d: D form. The star is where a group is joined. pNA = O=[N+]([O-])c1ccc(N*)cc1; Sar = CNCC(=O)O

By Ki is commonly meant a measure of affinity in units of concentration, obtained from inhibition or displacement. A high value points to weaker binding. For orientation: Km means the concentration of substrate that gives half-maximal velocity.

The first test concerns the target T1, human a-thrombin (Homo sapiens, UniProt P00734).
T1 construct: human a-thrombin
Kind of test: In vitro assay for determining proteinase inhibition (human a-thrombin, hydrolysis of p-nitroanilide or fluorogenic substrate). Type of test: biochemical. The following applies: 25° C., 0.05 M TRIS buffer pH 7.4, 0.15 M NaCl, 0.1% PEG. As for the experimental part: In vitro assay for determining proteinase inhibition
(§1) Assays of human a-thrombin and human trypsin were performed at 25° C. in 0.05 M TRIS buffer pH 7.4, 0.15 M NaCl, 0.1% PEG. Trypsin assays also contained 1 mM CaCl2.
Concentrations of stock solutions of Z-GPR-afc were determined from measurements of absorbance at 380 nm of the 7-amino-4-trifluoromethylcoumarin produced upon complete hydrolysis of an aliquot of the stock solution by thrombin.
Activity assays were performed by diluting a stock solution of substrate at least tenfold to a final concentration ≤0.5 Km into a solution containing enzyme or enzyme equilibrated with inhibitor. Times required to achieve equilibration between enzyme and inhibitor were determined in control experiments. Initial velocities of product formation in the absence (Vo) or presence of inhibitor (Vi) were measured. Assuming competitive inhibition, and that unity is negligible compared Km /[S], […] (where [S], [I], and e respectively represent the total concentrations, of substrate, inhibitor and enzyme), the equilibrium constant (Ki) for dissociation of the inhibitor from the enzyme can be obtained from the dependence of Vo /Vi on [I] shown in equation 1.
Turning to `CC[C@H](C)CC1Cc2cc(C)n(CC(=O)NCc3ccc(N)nc3C)c(=O)c2NC1=O` (stereo partly drawn), the Ki was determined as 0.52 nM.

`Cc1nc(N)ccc1CNC(=O)Cn1c(C)cc2c(c1=O)NC(=O)C(Cc1cccc(F)c1)C2` (stereo not drawn) yielded a Ki of 1.1 nM.

With `Cc1nc(N)ccc1CNC(=O)Cn1c(C)cc2c(c1=O)NC(=O)C(Cc1cc(F)ccc1F)C2` (stereo not drawn), the Ki amounted to 0.64 nM. `Cc1nc(N)ccc1CNC(=O)Cn1c(C)cc2c(c1=O)NC(=O)CC2` had a Ki of 350 nM. The compound `Cc1nc(N)ccc1CNC(=O)Cn1c(C)cc2c(c1=O)NC(=O)C(Cc1cc(F)cc(F)c1)C2` (stereo not drawn) registered an inhibitory constant (Ki) of 1.5 nM.

For a further test, the system named is human trypsin. Kind of test: Substrate hydrolysis by human trypsin (Km). The format is biochemical. Particulars: p-nitroanilide substrate, 405 nm, 25° C., pH 7.4, 1 mM CaCl2. As for the experimental part:
as §1
Turning to `CNCC(=O)N1CCC[C@H]1C(=O)N[C@@H](CCCNC(=N)N)C(=O)Nc1ccc([N+](=O)[O-])cc1` [sar-PR-pna, sarcosine-Pro-Arg-p-nitroanilide] (H-[Sar]-Pro-Arg-pNA), the Km worked out at 59 µM.

For the origin of these results see patent US6087373A, “Thrombin inhibitors” (Merck & Co., Inc., priority 1998, dated 2000).
